Reference: US7943551B2, “3-cyclopropyl-4-(3-thiobenzoyl) pyrazoles and their use as herbicides” (Bayer Cropscience AG, priority 2007, dated 2011)

Key:
Format in all cases: in vivo
Glycine max (soybeans) = experiment: Pre-emergence damage of crop plants; details: 320 g of a.i./ha, crop plant soybeans
Description: (§1) Seeds or rhizome pieces of mono- and dicotyledonous harmful plants are placed in sandy loam in pots of a diameter of 9 to 13 cm and covered with soil. The herbicides, formulated as emulsifiable concentrates or dusts, are applied to the surface of the covering soil in the form of aqueous dispersions or suspensions or emulsions at an application rate of 300 to 800 l of water/ha (converted), at a dosage of 320 grams per hectare. For further cultivation of the plants, the pots are then kept in a greenhouse under optimum conditions. The visual scoring of the damage to the harmful plants is carried out 3-4 weeks after the treatment. Here, the compounds of Nos. 1-3, 1-15, 1-44 and 1-1407 show an activity of at least 90% against Echinochloa crus galli. The compounds of Nos. 1-15, 1-45, 1-1407 and 1-1419 show an activity of at least 90% against Abutilon theophrasti. The compounds of Nos. 1-3, 1-45, 1-1406 and 1-1418 show an activity of at least 90% against Amaranthus retroflexus. The compounds of Nos. 1-44, 1-1406, 1-1407 and 1-1419 show an activity of at least 90% against Stellaria media.
(§2) The comparative tests of Tables 1 to 24 below show the superiority of the compounds according to the invention over the compounds known from the prior art.
(§3) • ABUTH Abutilon theophrasti ALOMY Alopecurus myosuroides • AMARE Amaranthus retroflexus AVEFA Avena fatua • CHEAL Chenopodium album ECHCG Echinochloa crus galli • GALAP Galium aparine LOLMU Lolium multiflorum • MATIN Matricaria inodora PHBPU Pharbitis purpureum • POLCO Fallopia convolvulus STEME Stellaria media • VERPE Veronica persica VIOTR Viola tricolor • XANST Xanthium strumarium Crop Plants • GLXMA Glycine max (soybeans) TRZAS Triticum aestivum (wheat) • ZEAMX Zea mays (corn)

[1] = test system: Triticum aestivum (wheat); experiment: Pre-emergence damage of crop plants; details: 320 g of a.i./ha, crop plant wheat
Description: as §1, §2, §3

Galium aparine = experiment: Pre-emergence herbicidal action; details: 320 g of a.i./ha
Description: as §1, §2, §3

Chenopodium album = experiment: Pre-emergence herbicidal action; details: 320 g of a.i./ha
Description: as §1, §2, §3

Echinochloa crus galli = experiment: Post-emergence herbicidal action; details: 80 g of a.i./ha, visual scoring 3-4 weeks after treatment, read-out: Herbicidal activity in % against ECHCG
Method: (§4) Seeds of mono- and dicotyledonous harmful plants are placed in sandy loam in cardboard pots, covered with soil and grown in the greenhouse under good growth conditions. Two to three weeks after sowing, the test plants are treated at the three-leaf stage. The compounds according to the invention, which are formulated as wettable powders or as emulsion concentrates, are sprayed at an application rate of 600 to 800 l of water/ha (converted) in a dosage of 80 grams per hectare onto the surface of the green plant parts. The visual scoring of the damage to the harmful plants is carried out 3-4 weeks after the treatment. Here, the compounds of Nos. 1-39, 1-40, 1-1382 and 1-2091 show an activity of at least 90% against Echinochloa crus galli. The compounds of Nos. 1-3, 1-44 and 1-2091 shown an activity of at least 90% against Abutilon theophrasti. The compounds of Nos. 1-39, 1-40 and 1-1382 show an activity of at least 90% against Veronica persica. The compounds of Nos. 1-3, 1-38, 1-39, 1-1406 and 1-1407 show an activity of at least 90% against Stellaria media.
as §2, §3

Lolium multiflorum = experiment: Post-emergence herbicidal action; details: 80 g of a.i./ha
Method: as §4, §2, §3

Avena fatua = experiment: Post-emergence herbicidal action; details: 80 g of a.i./ha
Method: as §4, §2, §3

Alopecurus myosuroides = experiment: Post-emergence herbicidal action; details: 80 g of a.i./ha
Method: as §4, §2, §3

Abutilon theophrasti = experiment: Post-emergence herbicidal action; details: Abutilon theophrasti, 80 g of a.i./ha, visual scoring 3-4 weeks after treatment, read-out: Herbicidal activity in % against ABUTH
Method: as §4, with “The compounds according to the invention, which are formulated as wettable powders or as emulsion concentrates, are sprayed at an application rate of 600 to 800 l of water/ha (converted) in a dosage of 80 grams per hectare onto the surface of the green plant parts.” left out
as §2, §3

Row | SMILES | Damage to GLXMA (Glycine max (soybeans)) | Damage to TRZAS [1] | Herbicidal activity in % GALAP (Galium aparine) [%] | Herbicidal activity in % CHEAL (Chenopodium album) [%] | pest or weed control at 80 g/ha (Echinochloa crus galli) [%] | Herbicidal activity in % against LOLMU (Lolium multiflorum) [%] | Herbicidal activity in % against AVEFA (Avena fatua) [%] | Herbicidal activity in % against ALOMY (Alopecurus myosuroides) [%] | pest or weed control at 80 g/ha (Abutilon theophrasti) [%]
1 | CCS(=O)(=O)c1c(S(C)(=O)=O)ccc(C(=O)c2c(C3CC3)nn(C)c2O)c1C [drawing 38, reference compound] | 50 | 50 | 90 | 90 | – | – | – | – | –
2 | Cn1nc(C2CC2)c(C(=O)c2ccc(Cl)c(S(=O)(=O)CC3CC3)c2Cl)c1O [drawing 55] | – | – | – | – | 90 | 60 | 50 | 70 | 70
3 | Cn1nc(C2CC2)c(C(=O)c2ccc(Cl)c(S(C)(=O)=O)c2Cl)c1O [drawing 56, reference compound] | – | – | – | – | 30 | 20 | 20 | 20 | 60
